In patent US7862798B2, “Vitamin-targeted imaging agents” (Endocyte, Inc., priority 2002, dated 2011):

Legend:
FR-positive KB cells = assay: Time-dependent cell uptake; format: cell-based, human; design: time to half-maximal saturation point: dose or concentration left out as unconfirmed
Procedure: KB cells were seeded in 12-well Falcon plates and allowed to form sub-confluent monolayers overnight. Following one rinse with 1 mL of fresh FFRPMI/HIFCS, each well received 1 mL of FFRPMI/HIFCS containing 10 nM ^99mTc-EC20. Cells were incubated for predetermined times at 37° C. and then rinsed four times with 1 mL of ice-cold PBS, pH 7.4. The cell monolayers were dissolved in 0.5 mL of PBS, pH 7.4 containing 1% sodium dodecyl sulfate for 15 min at room temperature and then counted for radioactivity using a Packard gamma counter. The protein in each sample was quantitated using a BioRad DC Protein Assay kit, and cellular protein values were converted to cell number using the conversion factor of 2.23×10^−7 mg protein per cell. Final tabulated values were expressed in terms of molecules of EC20 per cell.
The kinetics of ^99mTc-EC20 uptake into FR-positive KB cells was quantitatively measured using this protocol.

[1] = Serum protein binding (ultrafiltration), rat serum; format: in vitro ADME; conditions: room temperature, ultrafiltration 30,000 NMWL
Procedure: Fresh rat serum, and commercial male human serum (type AB donors, Sigma Chemical Co.) were used to evaluate in vitro binding of ^99mTc˜EC20 to serum proteins. One minute after ^99mTc-EC20 was mixed with 1 mL of serum at room temperature, 0.3 mL of the serum solution was transferred to a clean Amicon Centrifree® ultrafiltration device (30,000 NMWL) in triplicate. Within one minute of loading the centrifuge with the serum solution, the device was spun at 1000×g for 20 minutes at 20° C. 50 μL samples of the original solution, and of the filtrate from each device, was transferred to a clean tube and counted in an automatic gamma counter. A control solution of ^99mTc˜EC20 mixed with 1 mL of normal saline was ultrafiltered in an identical fashion. The percentage of free ^99mTc was calculated for each of the three samples.

[2] = HPLC speciation of the 99mTc-EC20 standard in saline over 6 hr; format: physicochemical; conditions: for Area Percent, Sum C and D / Area Percent, peak A (pertechnetate) / Area Percent, peak B (unknown) / Area Percent, peak C (isomer 1) / Area Percent, peak D (isomer 2): 99mTc-EC20 Standard
Procedure: The urinary HPLC speciation profile of ^99mTc-EC20 was obtained using Balb/c mice. Mice (˜20 g each) were injected with 1 mCi (6.7 nmol) of ^99mTc-EC20 via a lateral tail vein. Following a 1, 4, or 6 hour time period, groups of two mice were euthanized by CO2 asphyxiation and urine was collected. After filtration through a GV13 Millex filter, the radiochemical speciation was assessed using an HPLC system equipped with a Nova-Pak C18 3.9×150 mm column and a radiochemical detector. The system was isocratically eluted with 20% methanol containing 0.1% TFA at a flow rate of 1 mL/minute.
It was previously determined that the primary elimination route for ^111In-DTPA-Folate was via the urine. […] As shown in Table 4 (below), the radiochemical purity of the standard (sum of peaks C and D presumably corresponding to the syn and anti ^99mTc-EC20) remained constant at ˜93% over the 6 hr duration of this experiment. The amount of free ^99mTc in the standard (peak A) was ˜2%.

[3] = system: FR-positive M109 and FR-negative 4T1 tumors; assay: Tissue distribution, M109 and 4T1 tumor models (Example 15); format: in vivo, Balb/c mice; conditions: four hours post i.v. injection
Procedure: The protocols used in this example are similar to those described in Example 11.
Syngeneic, FR-positive M109 tumor cells (2×10^6 Po per animal) or FR-negative 4T1 cells (5×10^5 Po per animal) were inoculated subcutaneously in 100 μl of folate-free RPMI-1640 containing 1% syngeneic mouse serum.
Sixteen days after tumor cell inoculation, the animals were injected intravenously with 500 or 1800 nmoles/kg of EC20 for M109 tumor-bearing animals and 500 nmoles/kg of EC20 for 4T1 tumor-bearing animals (3 mice per dose group). All injections were in 100 μl volumes. […] Selected tissues (heart, lungs, liver, spleen, kidney, intestines, stomach, muscle, and tumor) were removed, weighed, and counted in an automatic gamma counter to determine ^99mTc distribution. Uptake of the radiopharmaceutical in terms of percentage injected dose of wet weight tissue (% ID/g) was calculated by reference to standards prepared from dilutions of the injected preparation.

[NH-][C@@H](CNC(=O)CC[C@@H](NC(=O)c1ccc(NCc2cnc3nc(N)[nH]c(=O)c3n2)cc1)C(=O)O)C(=O)[N-][C@@H](CC(=O)O)C(=O)[N-][C@@H](C[S-])C(=O)O.[O]=[Tc+4] [^99mTc-EC20]
time to half-maximal cell association (FR-positive KB cells; 10 nM, 37° C.): 9 min
molecules of EC20 cell-associated at steady state (FR-positive KB cells; 10 nM, 37° C., KB cells): approximately 3.2 million
time to steady-state uptake (FR-positive KB cells; 10 nM, 37° C., KB cells): within two hours
time to half-maximal saturation point (FR-positive KB cells; 10-fold higher concentration): 37 s
associated with the >30 kDa serum protein fraction [1]: 69%
Area Percent, Sum C and D ([2]; 0 hr): 93.5 Area Percent
Area Percent, peak A (pertechnetate) ([2]; 0 hr): 2 Area Percent
Area Percent, peak B (unknown) ([2]; 0 hr): 4.5 Area Percent
Area Percent, peak C (isomer 1) ([2]; 0 hr): 15.5 Area Percent
Area Percent, peak D (isomer 2) ([2]; 0 hr): 78 Area Percent
Area Percent, Sum C and D ([2]; 1 hr): 93.4 Area Percent
Area Percent, peak A (pertechnetate) ([2]; 1 hr): 2.1 Area Percent
Area Percent, peak B (unknown) ([2]; 1 hr): 4.5 Area Percent
Area Percent, peak C (isomer 1) ([2]; 1 hr): 15.7 Area Percent
Area Percent, peak D (isomer 2) ([2]; 1 hr): 77.7 Area Percent
Area Percent, Sum C and D ([2]; 6 hr): 93.4 Area Percent
Area Percent, peak A (pertechnetate) ([2]; 6 hr): 1.8 Area Percent
Area Percent, peak B (unknown) ([2]; 6 hr): 4.8 Area Percent
Area Percent, peak C (isomer 1) ([2]; 6 hr): 15.9 Area Percent
Area Percent, peak D (isomer 2) ([2]; 6 hr): 77.5 Area Percent
radiochemical purity of the standard (sum of peaks C and D) ([2]; constant over the 6 hr duration, saline solution): ~93%
free 99mTc in the standard (peak A) ([2]; saline solution): ~2%
uptake in FR-negative 4T1 tumors lower than in FR-positive M109 tumors [3]: 7.6 fold
uptake in normal tissues, except kidney [3]: low
